≈ marks a conversion by molar mass, not a printed value.
Key:
[1] = molecular target: E. coli RNA polymerase σ70 holoenzyme (Escherichia coli (strain K12), UniProt P0A8T7+P0A8V2); assay: Fluorescence-detected RNA polymerase assay, E. coli RNAP; assay type: biochemical
Protocol: (§1) Fluorescence-detected RNA polymerase assays with E. coli RNA polymerase were performed by a modification of the procedure of Kuhlman et al., 2004 [Kuhlman, P., Duff, H. & Galant, A. (2004) A fluorescence-based assay for multisubunit DNA-dependent RNA polymerases. Anal. Biochem. 324, 183-190]. Reaction mixtures contained (20 μl): 0-100 nM test compound, 75 nM E. coli RNA polymerase σ^70 holoenzyme, 20 nM 384 bp DNA fragment containing the bacteriophage T4 N25 promoter, 100 μM ATP, 100 μM GTP, 100 μM UTP, 100 μM CTP, 50 mM Tris-HCl, pH 8.0, 100 mM KCl, 10 mM MgCl2, 1 mM DTT, 10 μg/ml bovine serum albumin, and 5.5% glycerol. Reaction components other than DNA and NTPs were pre-incubated for 10 min at 37° C. Reactions were carried out by addition of DNA and incubation for 5 min at 37° C., followed by addition of NTPs and incubation for 60 min at 37° C. DNA was removed by addition of 1 μl 5 mM CaCl2 and 2 U DNaseI (Ambion, Inc.), followed by incubation for 90 min at 37° C. RNA was quantified by addition of 100 μl RiboGreen RNA Quantitation Reagent (Invitrogen, Inc.; 1:500 dilution in Tris-HCl, pH 8.0, 1 mM EDTA), followed by incubation for 10 min at 25° C., followed by measurement of fluorescence intensity [excitation wavelength=485 nm and emission wavelength=535 nm; QuantaMaster QM1 spectrofluorometer (PTI, Inc.)]. IC50 is defined as the concentration of inhibitor resulting in 50% inhibition of RNA polymerase activity.

[2] = molecular target: M. tuberculosis RNA polymerase core enzyme + σA (Mycobacterium tuberculosis (strain ATCC 25618 / H37Rv), UniProt P9WGY7+P9WGY9); assay: Fluorescence-detected RNA polymerase assay, M. tuberculosis RNAP; assay type: biochemical
Protocol: as §1
Fluorescence-detected RNA polymerase assays with M. tuberculosis RNA polymerase were performed as in Example 21.1, using reaction mixtures containing (20 μl): 0-100 nM test compound, 75 nM M. tuberculosis RNA polymerase core enzyme, 300 nM M. tuberculosis σ^A, 20 nM 384 bp DNA fragment containing the bacteriophage T4 N25 promoter, 100 μM ATP, 100 μM GTP, 100 μM UTP, 100 μM CTP, 40 mM Tris-HCl, pH 8.0, 80 mM NaCl, 5 mM MgCl2, 2.5 mM DTT, and 12.7% glycerol. IC50 is defined as the concentration of inhibitor resulting in 50% inhibition of RNA polymerase activity.

[3] = molecular target: S. aureus RNA polymerase core enzyme + σA (Staphylococcus aureus (strain NCTC 8325 / PS 47), UniProt P47768+Q2G0N5); assay: Fluorescence-detected RNA polymerase assay, S. aureus RNAP; assay type: biochemical
Protocol: as §1
Fluorescence-detected RNA polymerase assays with S. aureus RNA polymerase were performed as in Example 21.1, using reaction mixtures containing (20 μl): 0-100 nM test compound, 75 nM S. aureus RNA polymerase core enzyme, 300 nM S. aureus σ^A, 20 nM 384 bp DNA fragment containing the bacteriophage T4 N25 promoter, 100 μM ATP, 100 μM GTP, 100 μM UTP, 100 μM CTP, 40 mM Tris-HCl, pH 8.0, 80 mM NaCl, 5 mM MgCl2, 2.5 mM DTT, and 12.7% glycerol. IC50 is defined as the concentration of inhibitor resulting in 50% inhibition of RNA polymerase activity.

[4] = system: Mycobacterium tuberculosis H37Rv; assay: MIC, microplate Alamar Blue assay; conditions: read-out: MIC M. tuberculosis H37Rv
[5] = system: Staphylococcus aureus ATCC 12600; assay: MIC, spiral gradient endpoint assay; conditions: ATCC12600, read-out: MIC S. aureus 12600
[6] = system: Staphylococcus aureus ATCC 13709 MSSA; assay: MIC, spiral gradient endpoint assay; conditions: read-out: MIC S. aureus 13709
[7] = system: Staphylococcus aureus BAA-1707 MRSA (MW2); assay: MIC, spiral gradient endpoint assay; conditions: read-out: MIC S. aureus MRSA 1707
[8] = system: Staphylococcus aureus BAA-1717 MRSA (USA300); assay: MIC, spiral gradient endpoint assay; conditions: read-out: MIC S. aureus MRSA 1717
[9] = system: Enterococcus faecalis ATCC 19433; assay: MIC, spiral gradient endpoint assay; conditions: ATCC19433, read-out: MIC E. faecalis 19433
[10] = system: Enterococcus faecium ATCC 19434; assay: MIC, spiral gradient endpoint assay; conditions: ATCC19434, read-out: MIC E. faecium 19434
[11] = system: Escherichia coli D21f2tolC; assay: MIC, spiral gradient endpoint assay; conditions: read-out: MIC E. coli D21f2tolC
[12] = system: Streptococcus pneumoniae ATCC 49619; assay: MIC, spiral gradient endpoint assay (GC II agar, 5% CO2); conditions: ATCC49619, read-out: MIC S. pneumoniae 49619
[13] = system: Streptococcus pyogenes ATCC 12344; assay: as above; conditions: ATCC12344, read-out: MIC S. pyogenes 12344
[14] = system: Moraxella catarrhalis ATCC 25238; assay: as above; conditions: ATCC25238, read-out: MIC M. catarrhalis 25238
[15] = system: Bacillus anthracis Vollum-1b; assay: microbe, parasite or virus in culture; assay type: cell-based; conditions: VOLLUM1B, read-out: MIC B. anthracis Vollum-1b
[16] = system: Francisella tularensis SCHU4; assay: microbe, parasite or virus in culture; assay type: cell-based; conditions: SCHU4, read-out: MIC F. tularensis SCHU4

Compound	IC50 [1] [µM]	IC50 [2] [µM]	IC50 [3] [µM]	MIC [4] [µg/mL]	MIC [5] [µg/mL]	MIC [6] [µg/mL]	MIC [7] [µg/mL]	MIC [8] [µg/mL]	MIC [9] [µg/mL]	MIC [10] [µg/mL]	MIC [11] [µg/mL]	MIC [12] [µg/mL]	MIC [13] [µg/mL]	MIC [14] [µg/mL]	MIC [15] [µg/mL]	MIC [16] [µg/mL]
CCC1=C(O)C(CC)(CC)C(=O)C(C(=O)CCc2ccccc2)=C1O [Compound 16, 3,5-dihydroxy-2-(3-phenylpropanoyl)-4,6,6-triethylcyclohexa-2,4-dienone]	> 400	> 400	> 400	> 50	4 (≈ 11.7 µM)	6 (≈ 17.5 µM)	6 (≈ 17.5 µM)	8 (≈ 23.4 µM)	19 (≈ 55.5 µM)	5 (≈ 14.6 µM)	5 (≈ 14.6 µM)	15 (≈ 43.8 µM)	19 (≈ 55.5 µM)	> 40	–	–
CC(C)CCC1=C(O)C(CCC(C)C)(CCC(C)C)C(=O)C(C(=O)CCc2ccccc2)=C1O [Compound 15, 3,5-dihydroxy-2-(3-phenylpropanoyl)-4,6,6-triisopentylcyclohexa-2,4-dienone]	3.5	2.6	11	50 (≈ 107 µM)	0.5 (≈ 1.07 µM)	0.5 (≈ 1.07 µM)	0.4 (≈ 0.853 µM)	0.5 (≈ 1.07 µM)	1 (≈ 2.13 µM)	1.5 (≈ 3.2 µM)	4 (≈ 8.53 µM)	12 (≈ 25.6 µM)	12 (≈ 25.6 µM)	25 (≈ 53.3 µM)	0.098 (≈ 0.209 µM)	0.19 (≈ 0.405 µM)
COc1ccccc1CCC(=O)C1=C(O)C(CCC(C)C)=C(O)C(CCC(C)C)(CCC(C)C)C1=O [Compound 4, 3,5-dihydroxy-2-(3-(2-methoxyphenyl)propanoyl)-4,6,6-triisopentylcyclohexa-2,4-dienone]	1.9	1.6	4.3	> 50	0.6 (≈ 1.2 µM)	–	–	–	3 (≈ 6.02 µM)	–	12 (≈ 24.1 µM)	2.7 (≈ 5.41 µM)	15 (≈ 30.1 µM)	> 40	0.098 (≈ 0.197 µM)	> 50
CCCCCC1=C(O)C(CCCCC)(CCCCC)C(=O)C(C(=O)CCc2ccccc2)=C1O [Compound 19, 3,5-dihydroxy-2-(3-phenylpropanoyl)-4,6,6-tripentylcyclohexa-2,4-dienone]	7.3	4.1	13	50 (≈ 107 µM)	2 (≈ 4.27 µM)	3 (≈ 6.4 µM)	0.7 (≈ 1.49 µM)	1 (≈ 2.13 µM)	9 (≈ 19.2 µM)	2 (≈ 4.27 µM)	14 (≈ 29.9 µM)	15 (≈ 32 µM)	15 (≈ 32 µM)	19 (≈ 40.5 µM)	0.049 (≈ 0.105 µM)	0.39 (≈ 0.832 µM)
CCCCC1=C(O)C(CCCC)(CCCC)C(=O)C(C(=O)CCc2ccccc2)=C1O [Compound 18, 3,5-dihydroxy-2-(3-phenylpropanoyl)-4,6,6-tributylcyclohexa-2,4-dienone]	33	22	80	50 (≈ 117 µM)	< 0.5	0.8 (≈ 1.88 µM)	0.8 (≈ 1.88 µM)	< 0.5	11 (≈ 25.8 µM)	0.6 (≈ 1.41 µM)	1.2 (≈ 2.81 µM)	9.3 (≈ 21.8 µM)	12 (≈ 28.1 µM)	24 (≈ 56.3 µM)	0.049 (≈ 0.115 µM)	25 (≈ 58.6 µM)
CCCC1=C(O)C(CCC)(CCC)C(=O)C(C(=O)CCc2ccccc2)=C1O [Compound 17, 3,5-dihydroxy-2-(3-phenylpropanoyl)-4,6,6-tripropylcyclohexa-2,4-dienone]	70	140	> 400	> 50	1 (≈ 2.6 µM)	2 (≈ 5.2 µM)	2 (≈ 5.2 µM)	2 (≈ 5.2 µM)	3 (≈ 7.8 µM)	1 (≈ 2.6 µM)	1.3 (≈ 3.38 µM)	15 (≈ 39 µM)	19 (≈ 49.4 µM)	> 40	–	–
CC(C)CCC1=C(O)C(CCC(C)C)(CCC(C)C)C(=O)C(C(=O)CCc2cccc(Cl)c2)=C1O [Compound 2, 3,5-dihydroxy-2-(3-(3-chlorophenyl)propanoyl)-4,6,6-triisopentylcyclohexa-2,4-dienone]	2.5	2.2	5.9	50 (≈ 99.4 µM)	0.5 (≈ 0.994 µM)	–	–	–	1 (≈ 1.99 µM)	–	15 (≈ 29.8 µM)	12 (≈ 23.9 µM)	19 (≈ 37.8 µM)	19 (≈ 37.8 µM)	0.098 (≈ 0.195 µM)	> 50
CC(C)CCC1=C(O)C(CCC(C)C)(CCC(C)C)C(=O)C(C(=O)CCc2ccccc2Cl)=C1O [Compound 1, 3,5-dihydroxy-2-(3-(2-chlorophenyl)propanoyl)-4,6,6-triisopentylcyclohexa-2,4-dienone]	2.1	1.2	5.7	50 (≈ 99.4 µM)	0.6 (≈ 1.19 µM)	–	–	–	2 (≈ 3.98 µM)	–	24 (≈ 47.7 µM)	15 (≈ 29.8 µM)	19 (≈ 37.8 µM)	> 40	0.049 (≈ 0.0974 µM)	6.25 (≈ 12.4 µM)

Reference: patent US10800725B2, “Arylpropionyl-triketone antibacterial agents” (priority 2010, dated 2020)
